In patent US20180030080A1, “Phosphoramidate nucleoside prodrug for treating viral diseases and cancer, processes for their preparation and their use” (ASAVI, LLC, priority 2016, published 2018):
Like-named read-outs stand apart in the source and are kept apart here.

Columns and labels:
HBV = experiment: Anti-HBV activity in the AD-38 cell line using real-time quantitative PCR; assay type: cell-based; details: against HBV; for EC50: AD-38 cells, 4 days, read-out: EC50; for inhibition, %: concentration not given
Description: Anti-HBV activity of prodrugs of general formula 1 determination in the AD-38 cell line using a real-time quanitative PCR. a) Cell cultures. HepG2 AD38 cell line, harboring an integrated over-the-length HBV genomic DNA (Lander S, et. al, Antimicrobal Agents and Chemotherapy, 1997, pg. 1715-1720) were provided by Dr. C. Seeger, Fox Chase Cancer Center, Philadelphia, Pa.). Cells were grown in complete media (DMEM/F12 with 2 mM L-Glutamine (Thermo Scientific, Cat #11320033), 10% Fetal Bovine Serum (ThermoFisher Scientific, Cat#), 1% Antibiotic-antimitotic solution (ThermoFisher Scientific, Cat#15240096), and 0.3 μg/ml tetracyclin (Sigma, Cat # T7660-5G). Cells were plated onto Corning Biocoat 96-well plates (Corning, Cat #356407) in 225 ul of complete media (without teracyclin), 20000 cells/well. The prodrugs of general formula 1 were dissolved first in DMSO (Sigma cat. D2650), then in DMEM/F12 and 9 serial 3× dilutions were prepared and added to cells in 22.5 μl. The final prodrugs concentrations ranged from 10 μM to 1 nM. Cells grown in the presence of tetracyclin were used as a positive control, as HBV replication in this cell line is turned off by thetracyclin. Cell plates were incubated for 4 days at 37 C, 5% CO2. b) HBV DNA isolation. After 4 days, viral DNA was isolated from culture supernatants using PureLink® Pro 96 Genomic DNA Purification Kit (ThermoFisher Scientific, Cat # K183104A), according to manufacturer's recommendations. Eluted DNA samples were stored at −20 C. c) Quantitative real-time PCR (qPCR). PCR was performed on the CFX96™ Real-Time System (Bio-Rad, Hercules, Calif.) using AmpliTaq Gold® DNA Polymerase (Applied Biosystems®).
Ct values (cycle threshold) were obtained for each prodrug sample and normalized to untreated cells, according to formula E=(1/(1+100%))̂(Ct[studied prodrug sample]−Ct[K-]), where E is a normalized expression of studied gene, Ct[K-] and Ct[studied prodrug sample] are Ct values of untreated cells and studied prodrug sample. Inhibition curves were obtained and EC50 values were calculated using the Graph Prizm software (Table 3).

HepG2 AD38 cell line = experiment: Cytotoxicity (viability, CC50) reported with the anti-HBV test; assay type: cell-based; details: for viability, %: concentration not given
HCV replicon gT1b = experiment: HCV replicon assay, genotype gT1b; assay type: cell-based; details: Hepatitis C virus
Description: (§1) Anti-HCV activity (EC50) and cytotoxicity (CC50) of prodrugs of general formula 1. The HCV replicon assay was used to determine the antiviral activity of chemotherapeutic agents of general formula 1 (test compounds). Sovaldi (PSI-7977) was used as the reference drug. The test cell line used in the HCV Replicon Assay was the human hepatoma cell line Huh7 incorporating the HCV replicons synthesized by an outside vendor. 96-well plates were seeded with cells at a density of 7.5×10^3 cells per well in 50 μl of assay media. The compound stock solution was made up freshly in an assay medium (DMEM 1×, Cellgro; cat. #10-013-CV) as a 2× stock. A total of 11 serial 3-fold dilutions of test compounds were prepared from the 2× stock in the assay media ranging from 20 nM-0.2 pM final concentrations. At least 4 hours after seeding the cells, compound treatment was initiated by adding 50 μl of compound dilution to the plates. […] The final DMSO concentration was 0.5%. Cells and inhibitors were incubated for 3 days at 37° C./5% CO2. The media was removed from the plates by gentle tapping. The cells were fixed with 100 μl 1:1 acetone:methanol for 1 minute, washed three times with PBS buffer, and then blocked with 150 μl/well 10% Fetal Bovine Serum (FBS) in PBS for 1 hour at room temperature. The cells were then washed three times with PBS buffer and incubated with 100 μl/well anti-hepatitis C core mAb (Affinity BioReagents; cat. # MA1-080, 1 mg/ml stock diluted 1:4,000 in 10% FBS-PBS) for 2 hours at 37° C. Then, the cells were washed three times with PBS and incubated with 100 μl/well HRP-Goat Anti-Mouse antibody (diluted 1:3.500 in 10% FBS-PBS) for 1 hour at 37° C. The cells were then washed three times with PBS and developed with an OPD solution, 100 μl/well (1 OPD tablet+12 ml citrate/phosphate buffer+5 μl 30% H2O2 per plate), for 30 minutes in the dark at room temperature. The reaction was stopped with 2N H2SO4 (100 μl/well), and the absorbance was measured at A490 X on a Victor^3 V 1420 multilabel counter (Perkin Elmer). The EC50 values were calculated for test compounds from the resulting best-fit equations determined by Xlfit software (Table 1).

HCV replicon gT1a = experiment: HCV replicon assay, genotype gT1a; assay type: cell-based; details: Hepatitis C virus, mean
Description: as §1, with “The cells were then washed three times with PBS and developed with an OPD solution, 100 μl/well (1 OPD tablet+12 ml citrate/phosphate buffer+5 μl 30% H2O2 per plate), for 30 minutes in the dark at room temperature.” left out

HCV replicon gT2a = experiment: HCV replicon assay, genotype gT2a; assay type: cell-based; details: Hepatitis C virus, mean
Description: (§2) Anti-HCV activity (EC50) and cytotoxicity (CC50) of prodrugs of general formula 1. The HCV replicon assay was used to determine the antiviral activity of chemotherapeutic agents of general formula 1 (test compounds). Sovaldi (PSI-7977) was used as the reference drug. The test cell line used in the HCV Replicon Assay was the human hepatoma cell line Huh7 incorporating the HCV replicons synthesized by an outside vendor. 96-well plates were seeded with cells at a density of 7.5×10^3 cells per well in 50 μl of assay media. The compound stock solution was made up freshly in an assay medium (DMEM 1×, Cellgro; cat. #10-013-CV) as a 2× stock. A total of 11 serial 3-fold dilutions of test compounds were prepared from the 2× stock in the assay media ranging from 20 nM-0.2 pM final concentrations. At least 4 hours after seeding the cells, compound treatment was initiated by adding 50 μl of compound dilution to the plates. The final concentrations of compound therefore ranged from 10 nM to 0.1 pM when diluted 1:1 in culture media. The final DMSO concentration was 0.5%. Cells and inhibitors were incubated for 3 days at 37° C./5% CO2. The media was removed from the plates by gentle tapping. The cells were fixed with 100 μl 1:1 acetone:methanol for 1 minute, washed three times with PBS buffer, and then blocked with 150 μl/well 10% Fetal Bovine Serum (FBS) in PBS for 1 hour at room temperature. The cells were then washed three times with PBS buffer and incubated with 100 μl/well anti-hepatitis C core mAb (Affinity BioReagents; cat. # MA1-080, 1 mg/ml stock diluted 1:4,000 in 10% FBS-PBS) for 2 hours at 37° C. Then, the cells were washed three times with PBS and incubated with 100 μl/well HRP-Goat Anti-Mouse antibody (diluted 1:3.500 in 10% FBS-PBS) for 1 hour at 37° C. […] The reaction was stopped with 2N H2SO4 (100 μl/well), and the absorbance was measured at A490 X on a Victor^3 V 1420 multilabel counter (Perkin Elmer). The EC50 values were calculated for test compounds from the resulting best-fit equations determined by Xlfit software (Table 1).

HCV replicon gT3a = experiment: HCV replicon assay, genotype gT3a; assay type: cell-based; details: Hepatitis C virus, mean
Description: as §2, with “The final concentrations of compound therefore ranged from 10 nM to 0.1 pM when diluted 1:1 in culture media.” left out

HCV replicon gT4a = experiment: HCV replicon assay, genotype gT4a; assay type: cell-based; details: Hepatitis C virus, mean
Description: as §2, with “The final concentrations of compound therefore ranged from 10 nM to 0.1 pM when diluted 1:1 in culture media.” left out

HCV replicon gT5a = experiment: HCV replicon assay, genotype gT5a; assay type: cell-based; details: Hepatitis C virus, mean
Description: as §2, with “The final concentrations of compound therefore ranged from 10 nM to 0.1 pM when diluted 1:1 in culture media.” left out

HBV wild-type = details: HBV wild-type; cited from earlier work
HCV replicon = details: cited from earlier work
[1] = GT1B, read-out: IC50 HCV gT1b 10% FBS (mean)
[2] = gT1b, 40% NHS, mean, read-out: IC50 HCV gT1b 40% NHS (mean)

Molecule	EC50 (HBV) [nM]	inhibition, % (HBV) [%]	CC50 (HepG2 AD38 cell line) [nM]	viability, % (HepG2 AD38 cell line) [%]	also measured
C=CCOC(=O)[C@H](C)N[P@](=O)(OC[C@@H]1O[C@H](n2ccc(=O)[nH]c2=O)CS1)Oc1ccccc1 [1.2(94), allyl (S)-2-{(S)-[(2R,5S)-5-(2,4-dioxo-3,4-dihydro-2H-pyrimidin-1-yl)-[1,3]oxathiolan-2-ylmethoxy]-phenoxy-phosphorylamino}-propanoate]	300 ± 90	99	> 30000	101	–
C=C1[C@H](CO[P@@](=O)(N[C@@H](C)C(=O)O[C@@H](C)C(=O)OC(C)C)Oc2ccccc2)[C@@H](O)C[C@@H]1n1cnc2c(=O)[nH]c(N)nc21 [1.2(50), (S)-1-isopropoxycarbonyl-ethyl (S)-2-{(S)-[(1R,3S,5S)-3-(2-amino-6-oxo-1,6-dihydro-purin-9-yl)-5-hydroxy-2-methylene-cyclopentylmethoxy]-phenoxy-phosphorylamino}-propanoate]	40 ± 30	100	> 30000	95	–
CC(C)OC(=O)[C@H](C)OC(=O)[C@H](C)N[P@](=O)(OC[C@@H]1O[C@H](n2ccc(N)nc2=O)CS1)Oc1ccccc1 [1.2(92), (S)-1-isopropoxycarbonyl-ethyl (S)-2-{(S)-[(2R,5S)-5-(4-amino-2-oxo-2H-pyrimidin-1-yl)-[1,3]oxathiolan-2-ylmethoxy]-phenoxy-phosphorylamino}-propanoate]	800 ± 610	86	> 30000	103	–
CC(C)OC(=O)[C@H](C)OC(=O)[C@H](C)NP(=O)(OC[C@H]1O[C@@H](n2ccc(=O)[nH]c2=O)[C@](C)(F)[C@@H]1O)Oc1ccccc1 (stereo partly drawn) [1.2(2), (S)-1-isopropyloxycarbonyl-ethyl (S)-2-{[(2R,3R,4R,5R)-5-(2,4-dioxo-3,4-dihydro-2H-pyrimidin-1-yl)-4-fluoro-3-hydroxy-4-methyl-tetrahydro-furan-2-ylmethoxy]-phenoxy-phosphorylamino}-propanoate]	–	–	–	–	IC50 (HCV replicon gT1b; [1]): 18 nM; IC50 (HCV replicon gT1b; [2]): 34 nM; IC50 (HCV replicon gT1a): 57 nM; IC50 (HCV replicon gT2a): 24 nM; IC50 (HCV replicon gT3a): 69 nM; IC50 (HCV replicon gT4a): 80 nM; IC50 (HCV replicon gT5a): 185 nM
C=CCOC(=O)[C@H](C)NP(=O)(OC[C@H]1O[C@@H](n2ccc(=O)[nH]c2=O)[C@](C)(F)[C@@H]1O)Oc1ccccc1 (stereo partly drawn) [1.2(9), allyl (S)-2-{[(2R,3R,4R,5R)-5-(2,4-dioxo-3,4-dihydro-2H-pyrimidin-1-yl)-4-fluoro-3-hydroxy-4-methyl-tetrahydro-furan-2-ylmethoxy]-phenoxy-phosphorylamino}-propanoate]	–	–	–	–	IC50 (HCV replicon gT1b; [1]): 29 nM; IC50 (HCV replicon gT1b; [2]): 34 nM; IC50 (HCV replicon gT1a): 54 nM; IC50 (HCV replicon gT2a): 23 nM; IC50 (HCV replicon gT3a): 51 nM; IC50 (HCV replicon gT4a): 100 nM; IC50 (HCV replicon gT5a): 146 nM
COCCOC(=O)[C@H](C)N[P@](=O)(OC[C@@H]1O[C@H](n2ccc(=O)[nH]c2=O)CS1)Oc1ccccc1 [1.2(96), 2-methoxy-ethyl (S)-2-{(S)-[(2R,5S)-5-(2,4-dioxo-3,4-dihydro-2H-pyrimidin-1-yl)-[1,3]oxathiolan-2-ylmethoxy]-phenoxy-phosphorylamino}-propanoate]	320 ± 80	96	> 30000	89	–
CC(C)OC(=O)[C@H](C)OC(=O)[C@H](C)N[P@](=O)(OC[C@@H]1O[C@H](n2cc(F)c(N)nc2=O)CS1)Oc1ccccc1 [1.2(93), (S)-1-isopropoxycarbonyl-ethyl (S)-2-{(S)-[(2R,5S)-5-(4-amino-5-fluoro-2-oxo-2H-pyrimidin-1-yl)-[1,3]oxathiolan-2-ylmethoxy]-phenoxy-phosphorylamino}-propanoate]	40 ± 10	93	> 30000	94	–
C=CCOC(=O)[C@H](C)N[P@](=O)(OC[C@@H]1O[C@H](n2cc(F)c(=O)[nH]c2=O)CS1)Oc1ccccc1 [1.2(97), allyl (S)-2-{(S)-[(2R,5S)-5-(5-fluoro-2,4-dioxo-3,4-dihydro-2H-pyrimidin-1-yl)-[1,3]oxathiolan-2-ylmethoxy]-phenoxy-phosphorylamino}-propanoate]	370 ± 50	99	> 30000	91	–
2′-fluoro-6′-methylene-carbocyclic adenosine [FMCA]	–	–	–	–	EC50 (HBV wild-type): 550 nM
CC(C)(CO)C(=O)SCCOP(=O)(COC[C@H]1OC(n2cnc3c(=O)[nH]c(N)nc32)[C@](C)(O)[C@@H]1O)NCc1ccccc1 (stereo partly drawn) [IDX-184]	–	–	–	–	EC50 (HCV replicon): 400 nM
COc1nc(N)nc2c1ncn2[C@@H]1O[C@H](COP(=O)(N[C@@H](C)C(=O)OC(C)C)Oc2ccccc2)[C@@H](O)[C@@]1(C)F (stereo partly drawn) [PSI-353661]	–	–	–	–	EC90 (HCV replicon; replicon assay): 8 nM; increase in potency compared to the guanosine analogue (HCV replicon; versus β-D-2′-deoxy-2′-R-fluoro-2′-β-C-methylguanosine): > 1000 fold
